Results taken from patent US9744236B2, “Photolabile compounds” (The Trustees of Columbia University in the City of New York, priority 2009, dated 2017).
Like-named read-outs stand apart in the source and are kept apart here.

What was measured:
[1] = test system: mouse cortical neuron; assay: Whole-cell patch-clamp of cortical neuron, perfusion; type: cell-based; details: 1 μM via perfusion
Excerpt: FIGS. 13A and 13B: FIG. 13A depicts the structure of TzGly. […] The measurement results were obtained by the whole-cell patch-clamp method, as known and used in the art.

[2] = test system: Retzius (Rz) cells in the ganglion; assay: Intracellular voltage recording of leech ganglion neuron with light flash uncaging; details: for neuron spiking activity on addition, before light: ˜100 μM in saline, no flash; for neuron spiking activity after light flash: pulsed Xe lamp flash
Experimental: Hirudo medicinalis has a central nerve cord with several ganglia, each one containing about 400 neurons arranged in a known pattern. (W.-R. Schlue et al., 1980, J. Exp. Biol., 82:23-34). An entire ganglion was mounted on a dish. The transmembrane potential for a single cell (a neuron) in the ganglion was recorded by inserting inside the neuron a glass micropipet with a micrometer-sized end, filled with saturated aqueous KCl that acts as a luggin bridge for an Ag/AgCl electrode. Another Ag/AgCl electrode was used as a reference. The signal was taken with an AM-System 1600 amplifier, and the entire setup was covered with a Faraday cage. A 12 bit A/D acquisition card was used to digitize the data using an ad-hoc program written in QuickBasic.
Low Ca^2+-high Mg^2+ saline solution (NaCl, 102 mM; KCl, 4 mM; CaCl2: 1 mM; and MgCl2: 10 mM; Tris base, pH 5.4 adjusted to 7.4) was perfused through the dish. […] A pulsed Xe lamp located under the dish was used to irradiate the solution. UV light was removed using a band-pass filter at 500 nm.
After impaling the cell with an electrode, many experiments were performed on the same cell to ensure reproducibility. […] 300 seconds later, at 5500 s, a light flash was directed to the ganglion.

[3] = Dark stability and recombination followed by UV-vis spectra; type: physicochemical
Excerpt: The photoproducts after exposure to light were Ru(bpy)2(4AP)(H2O) and free 4AP.
(§1) Several ruthenium polypyridyl complexes present this behavior. (D. V. Pinnick et al., 1984, Inorg. Chem., 23:1440-1445).

[4] = Photorelease of 4AP from [Ru(bpy)2(4AP)2]Cl2 under visible light (UV-vis, NMR); type: physicochemical
Experimental: (§2) UV-vis spectra in water were obtained with an HP 8453 diode array spectrophotometer. RMN ^1H spectra were obtained using a Bruker 500 MHz equipment. CV measurements were performed with a PAR 273A potentiostat. Irradiation was effected by means of a pulsed Xe lamp, (pulse energy ˜0.5 J), with a low-pass filter at 480 nm. Irradiation using a 473 nm DPSS laser gave similar results.
as §1
Although at pH 7 the spectrum of the irradiated complex is very similar to that of the original complex, a diminished shoulder at 470 nm becomes evident. To determine the nature of the photoreaction, NMR spectra were taken before and after irradiation with visible light. […] After irradiation, this signal decreased, and two new signals appeared at lower fields: one corresponding to the free ligand (m3), and the other corresponding to the aquo-4AP complex (m2), indicating photorelease of the 4AP. These two latter signals integrated for 0.30 and 0.27 of the initial signal, which corresponds to a photoreaction of 60%.
(§3) (See, e.g., E. S. Dodsworth et al., 1986, Chem. Phys. Lett., 124:152-158). The photoactivity of these compounds has been explained in terms of a reaction pathway that involves the transition between the MLCT state to a lower-energy d-d state, which promotes ligand release. There is a direct correspondence between the energy of the MLCT transition and the quantum yield of the photoreaction. For [Ru(bpy)2(4AP)CH3CN]^2+, the photoreaction yield is about φPR=0.4. Since [Ru(bpy)2(4AP)2]Cl2 presents a red-shifted band, a lower photoreaction yield is expected. An estimate based on early experiments leads to an estimate of φPR≅0.02 at 473 nm.

[5] = Cyclic voltammetry, redox potential; type: physicochemical; details: in water, versus Ag/AgCl
Experimental: as §2, §3
Its aqueous solutions present a strong metal to ligand charge-transfer band (MLCT band) at 450 nm, characteristic of this family of Ru polypyridines.

[6] = Photolysis of [Ru(bpy)2(PMe3)(MTG)]+2, UV-Vis; type: physicochemical
Experimental: A total of 67 mg of [Ru(bpy)2(PMe3)Cl]PF6 were suspended in 4 ml acetone and 2 ml water, and were heated and stirred at 80° C. until dissolution. Evaporated acetone was gradually replaced with water or acetone to keep total volume constant but avoiding precipitation. All the following was performed under dim red light. 100 mg of D(+)methylthiogalactose were added and the mixture was kept at 80° C. for 5 hours: The reaction progress was followed by UV-Vis spectrophotometry until the aquo complex was no longer detectable. The solution was cooled in ice-cold water and saturated [BPh4]^− as sodium salt was added carefully. The pale yellow precipitate was washed six times in ice cold water by resuspending the precipitate and centrifugation. NMR spectra were taken in a 500 MHz Bruker Avance II spectrometer. Photolysis of the NMR sample was performed inside the unopened NMR tube, by means of a custom-built NMR photolysis device based in 10 high current (100 mA) LEDs with emission wavelength centered at 520+/−20 nm.
The complex has a molar absorptivity coefficient of ˜3100 and a maximum absorption wavelength in the visible range at 422 nm. Photolysis quantum yield is 0.3. Successive photolysis products of the same sample are shown in black (FIG. 21).

[7] = test system: E. coli culture; assay: Light-patterned uncaging of MTG in bacterial culture with X-Gal; type: cell-based; details: 1 mM complex, 0.02% X-Gal, 20 minutes irradiation, then 37° C.
Experimental: A handheld projector 3M (110 MPro) is used to irradiate for 20 minutes an E. coli culture growing in a piece of 7 cm diameter whatman filter paper soaked in LB medium containing 1 mM [(Ru(bpy)2P(Me)3(MTG)]^+2 and 0.02% X-Gal (FIG. 24A). After image projection, the culture is left at 37° C. for until blue precipitate is noticed (˜40 minutes, FIG. 24B).

[8] = Photouncaging quantum yield; type: physicochemical
Experimental: The photouncaging quantum yield measurements were performed with a Nd:YAG diode pumped solid state laser doubled to 473 nm with a constant power of 6.3 mW. The light was collimated and sent through an optical path of 1 cm into a fluorescence glass cuvette, with stirring. Total irradiation energy was measured using a Coherent Fieldmaster FM light meter with a visible light photodiode model SR45.
The quantum yield of rhodamine photorelease was calculated after the analysis of fluorescence emission data during photouncaging at 473 nm. A complete spectrum was obtained once per second. Absorption of light by the complex [Ru(bpy)2(RhodB-MAPN)Cl]^+ yields the aquo complex [Ru(bpy)2(H2O)Cl]^+ and free RhodB-MAPN. In each irradiation period the amount of aquo complex and free RhodB-MAPN generated is given by the following: δn=δtIφPU(1−10^−AbsT)AbsR/AbsT where δt is the irradiation period, I the light intensity in moles of photons per second, φPU is the quantum yield of photouncaging, AbsR is the absorbance of the photoactive species [Ru(bpy)2(RhodB-MAPN)Cl]^+ at 473 nm and AbsT is the total absorbance of the irradiated solution. By means of finite element calculation of the former equation a photouncaging quantum yield of φPU=0.12 at 25° C. was calculated. This value is in good agreement with the reported quantum yields for similar complexes. […]

[9] = Fluorescence emission quantum yield before and after irradiation; type: physicochemical
Excerpt: All reagents were purchased from Sigma-Aldrich and used as received. Ru(bpy)2Cl2 was synthesized according to the literature using water as solvent (Viala, C.; Coudret, C. Inorg. Chim. Acta 2006, 359: 984-989). UV-vis spectra were taken with a HP8453 diode-array spectrometer. NMR spectra were obtained using a 500 MHz Bruker AM-500. Fluorescence emission measurements were made with a PTI Quantamaster spectrofluorometer, corrected for the instruments response function. Rhodamine B was used as fluorescence standard of emission quantum yield (φ=0.31 in aqueous solutions). Quantum yield of the complex was obtained directly from the ratio of the spectral areas, which present the same shape.
FIG. 20 depicts the emission spectra of the complex during irradiation. The maximum and the shape of the initial emission spectrum is the same as that of the free ligand RhodB-MAPN but the emission quantum yield is much lower, around pt=0.04. Quantum yields are easily calculated integrating the spectral areas. After irradiation with a 473 nm laser, RhodB-MAPN is released and the solution increases its fluorescence up to 6 fold, to φt=0.24.

[10] = Photorelease of TzGly from [Ru(bpy)2(TzGly)(py)]Cl2; type: physicochemical; details: 470 nm

NC(C(=O)O)c1nnn[nH]1 (racemic) [TzGly, (RS)-(tetrazol-5-yl)glycine]
effect on neuron [1]: spiking

[Cl][Ru][Cl].c1ccc(-c2ccccn2)nc1.c1ccc(-c2ccccn2)nc1.c1ccc(-c2ccccn2)nc1 [Ru(bpy)3Cl2, reference compound]
neuron spiking activity on addition, before light [2]: without significant changes in activity | neuron spiking activity after light flash ([2]; ˜100 μM): after a short time the activity decreased to the basal level

Nc1ccncc1.Nc1ccncc1.[Cl-].[Cl-].[Ru+2].c1ccc(-c2ccccn2)nc1.c1ccc(-c2ccccn2)nc1 [[Ru(bpy)2(4AP)2]Cl2]
time without dark decomposition ([3]; in the dark): more than 20 hours | 4AP recombination ([3]; irradiated solution, after 7 hours in the dark): less than 4% | stability in the dark ([3]; water): stable in the dark | extent of photoreaction (NMR signal integration) ([4]; after irradiation with visible light): 60% | photoreaction yield φPR ([4]; at 473 nm, estimate based on early experiments): ~0.02 | redox potential of the couple R^III/R^II [5]: 0.76 V | toxicity on the neuron ([2]; during the experiments): Neither toxicity nor a deleterious effect was observed | neuron spiking activity on addition, before light [2]: the activity remained unchanged | neuron spiking activity after light flash ([2]; ˜100 μM): sudden activity was recorded and it remained high after 300 s | neuron spiking activity after second light pulse ([2]; ˜100 μM, second light pulse at 6750 s): even higher activity

CC#N.Nc1ccncc1.[Ru+2].c1ccc(-c2ccccn2)nc1.c1ccc(-c2ccccn2)nc1 [[Ru(bpy)2(4AP)CH3CN]^2+]
photoreaction yield φPR [4]: ~0.4

CP(C)C.CS[C@@H]1O[C@H](CO)[C@H](O)[C@H](O)[C@H]1O.[Ru+2].c1ccc(-c2ccccn2)nc1.c1ccc(-c2ccccn2)nc1 [[Ru(bpy)2(PMe3)(MTG)]^+2]
photolysis quantum yield [6]: 0.3 | time until blue precipitate is noticed [7]: ~40 min

CCN(CC)c1ccc2c(-c3ccccc3C(=O)N(C)CCC#N)c3ccc(=[N+](CC)CC)cc-3oc2c1.[Cl][Ru+].c1ccc(-c2ccccn2)nc1.c1ccc(-c2ccccn2)nc1 [[Ru(bpy)2(RhodB-MAPN)Cl]^+]
photouncaging quantum yield φPU ([8]; 473 nm, 25° C.): 0.12 | increase of fluorescence ([9]; after blue light (473 nm) irradiation): up to 6 fold | emission quantum yield ([9]; after irradiation with a 473 nm laser): 0.24 | emission quantum yield ([9]; aqueous, before irradiation): ~0.04

C=CCC#N.[Cl][Ru+].c1ccc(-c2ccccn2)nc1.c1ccc(-c2ccccn2)nc1 [[Ru(bpy)2(VACN)Cl]^+]
photouncaging quantum yield φPU (VACN release) [8]: 0.21

[Ru(bpy)2(TzGly)(py)]Cl2
photorelease on irradiation [10]: photoreleased TzGly
